Measurements: patent US11339130B1 (Blade Therapeutics, Inc., priority 2016, dated 2022)
Where two headings read alike, the source gives them in different places.

Tests used:
Type in all cases: biochemical
Human Calpain 2/NS1 = target: T1, Human Calpain 2/NS1 (Homo sapiens, UniProt P17655); test: Calpain inhibition continuous fluorescence (FRET) assay, Human Calpain 2/NS1; conditions: read-out: Human Calpain 2/NS1 IC50
T1 sequence (P17655 1-700): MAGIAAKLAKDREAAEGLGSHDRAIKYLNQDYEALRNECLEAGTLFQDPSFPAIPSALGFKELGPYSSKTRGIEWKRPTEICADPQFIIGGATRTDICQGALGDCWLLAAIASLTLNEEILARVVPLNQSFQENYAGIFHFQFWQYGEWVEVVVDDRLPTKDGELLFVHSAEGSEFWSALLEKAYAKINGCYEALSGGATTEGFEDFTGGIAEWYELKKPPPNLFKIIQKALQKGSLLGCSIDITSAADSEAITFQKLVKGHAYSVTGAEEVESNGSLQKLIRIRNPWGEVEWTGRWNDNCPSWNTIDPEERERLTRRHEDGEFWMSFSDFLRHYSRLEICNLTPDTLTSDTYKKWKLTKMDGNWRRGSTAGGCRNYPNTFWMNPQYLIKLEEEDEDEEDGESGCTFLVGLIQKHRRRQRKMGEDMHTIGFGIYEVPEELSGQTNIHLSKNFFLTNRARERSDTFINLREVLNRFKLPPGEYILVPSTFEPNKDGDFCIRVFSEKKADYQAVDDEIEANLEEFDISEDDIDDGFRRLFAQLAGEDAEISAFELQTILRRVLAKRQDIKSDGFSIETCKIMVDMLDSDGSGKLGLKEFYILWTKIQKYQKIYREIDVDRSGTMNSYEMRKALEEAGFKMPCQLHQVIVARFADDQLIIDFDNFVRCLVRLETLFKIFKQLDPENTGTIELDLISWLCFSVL
T1 sequence (P04632 1-268 partner): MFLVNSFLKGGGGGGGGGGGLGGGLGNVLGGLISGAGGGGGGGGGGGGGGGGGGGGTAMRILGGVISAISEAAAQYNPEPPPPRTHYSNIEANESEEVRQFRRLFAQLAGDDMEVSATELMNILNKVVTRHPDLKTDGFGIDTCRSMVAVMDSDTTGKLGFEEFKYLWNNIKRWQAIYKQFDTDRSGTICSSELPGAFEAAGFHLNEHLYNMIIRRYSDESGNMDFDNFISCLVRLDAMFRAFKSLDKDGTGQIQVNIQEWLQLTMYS
Outline: (§1)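 Human calpains 1, 2 and 9 preincubated with inhibitor at 25 °C in 50 mM Tris pH 7.5, 100 mM NaCl, 1 mM DTT; reaction started with 5-FAM/QXL 520 FRET peptide plus CaCl2 for activation. Fluorescence (490/520 nm) followed 10 min; rates from 1-5 min slopes fitted to 4-parameter logistic for IC50.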

Human Calpain 1/NS1 = target: T2, Human Calpain 1/NS1 (Homo sapiens, UniProt P07384); test: Calpain inhibition continuous fluorescence (FRET) assay, Human Calpain 1/NS1; conditions: read-out: Human Calpain 1/NS1 IC50
T2 sequence (P07384 1-714): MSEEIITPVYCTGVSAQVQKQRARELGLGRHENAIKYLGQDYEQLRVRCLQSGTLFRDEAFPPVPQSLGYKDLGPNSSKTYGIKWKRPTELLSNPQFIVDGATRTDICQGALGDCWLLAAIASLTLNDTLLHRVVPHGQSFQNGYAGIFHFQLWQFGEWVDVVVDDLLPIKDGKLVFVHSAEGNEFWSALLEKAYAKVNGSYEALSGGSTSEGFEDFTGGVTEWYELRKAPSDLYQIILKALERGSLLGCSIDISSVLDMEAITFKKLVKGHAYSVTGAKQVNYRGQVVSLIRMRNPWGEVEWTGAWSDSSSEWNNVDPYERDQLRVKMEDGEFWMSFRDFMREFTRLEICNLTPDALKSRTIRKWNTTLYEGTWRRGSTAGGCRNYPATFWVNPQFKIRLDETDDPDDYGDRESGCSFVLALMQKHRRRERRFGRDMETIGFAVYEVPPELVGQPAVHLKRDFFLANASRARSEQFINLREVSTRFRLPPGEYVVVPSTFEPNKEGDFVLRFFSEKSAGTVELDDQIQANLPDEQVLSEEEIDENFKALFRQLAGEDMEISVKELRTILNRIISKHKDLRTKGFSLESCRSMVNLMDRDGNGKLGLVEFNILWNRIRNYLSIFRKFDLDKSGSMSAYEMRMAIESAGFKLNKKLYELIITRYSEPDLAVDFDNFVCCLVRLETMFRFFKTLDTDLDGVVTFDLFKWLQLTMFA
T2 sequence (P04632 1-268 partner): T1 sequence (P04632 1-268 partner)
Outline: as §1

Human Calpain 9/NS1 = target: T3, Human Calpain 9/NS1 (Homo sapiens, UniProt O14815); test: Calpain inhibition continuous fluorescence (FRET) assay, Human Calpain 9/NS1; conditions: read-out: Human Calpain 9/NS1 IC50
T3 sequence (O14815 1-690): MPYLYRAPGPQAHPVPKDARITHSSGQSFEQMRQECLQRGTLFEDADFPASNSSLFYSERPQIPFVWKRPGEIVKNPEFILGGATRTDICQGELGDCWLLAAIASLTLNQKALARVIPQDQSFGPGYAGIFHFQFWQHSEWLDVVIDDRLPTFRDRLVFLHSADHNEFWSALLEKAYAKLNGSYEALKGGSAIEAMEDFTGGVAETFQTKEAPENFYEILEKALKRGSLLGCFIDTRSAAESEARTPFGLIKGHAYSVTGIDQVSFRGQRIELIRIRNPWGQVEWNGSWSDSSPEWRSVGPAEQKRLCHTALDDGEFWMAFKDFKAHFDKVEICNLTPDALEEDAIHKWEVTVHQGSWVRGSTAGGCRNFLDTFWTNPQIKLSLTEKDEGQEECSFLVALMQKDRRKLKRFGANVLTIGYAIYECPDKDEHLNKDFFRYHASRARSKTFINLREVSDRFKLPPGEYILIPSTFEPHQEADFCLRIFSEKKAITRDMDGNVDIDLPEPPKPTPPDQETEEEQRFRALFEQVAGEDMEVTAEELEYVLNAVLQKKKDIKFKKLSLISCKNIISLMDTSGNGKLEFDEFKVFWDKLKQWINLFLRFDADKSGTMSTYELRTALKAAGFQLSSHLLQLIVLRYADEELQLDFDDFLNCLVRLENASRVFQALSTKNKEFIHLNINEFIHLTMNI
T3 sequence (P04632 1-268 partner): T1 sequence (P04632 1-268 partner)
Outline: as §1

Structure (SMILES)	IC50 (Human Calpain 2/NS1; Column B) [µM]	IC50 (Human Calpain 1/NS1; Column A) [µM]	IC50 (Human Calpain 9/NS1; Column C) [µM]	IC50 (Human Calpain 2/NS1) [µM]	IC50 (Human Calpain 1/NS1) [µM]	IC50 (Human Calpain 9/NS1) [µM]
Cc1noc(-c2ccccc2)c1C(=O)N[C@@H](Cc1ccccc1)C(=O)C(=O)NCc1ccc(S(C)(=O)=O)cc1 [Compound 151, (S)-3-methyl-N-(4-((4-(methylsulfonyl)benzyl)amino)-3,4-dioxo-1-phenylbutan-2-yl)-5-phenylisoxazole-4-carboxamide]	< 3	< 3	< 3	–	–	–
O=C[C@H](Cc1ccccc1)NC(=O)c1cncn1-c1ccccc1 [Compound 1, (S)—N-(1-oxo-3-phenylpropan-2-yl)-1-phenyl-1H-imidazole-5-carboxamide]	< 3	< 3	< 3	–	–	–
Cc1nsc(-c2ccccc2)c1C(=O)N[C@@H](Cc1ccccc1)C(=O)C(=O)NC1CC1 [Compound 116, (S)—N-(4-(cyclopropylamino)-3,4-dioxo-1-phenylbutan-2-yl)-3-methyl-5-phenylisothiazole-4-carboxamide]	3 to 10	< 3	> 10	–	–	–
Cc1cc(C(=O)N[C@@H](Cc2ccccc2)C(=O)C(N)=O)nn1-c1ncc(-c2ccccc2)s1 [Compound 115, (S)—N-(4-amino-3,4-dioxo-1-phenylbutan-2-yl)-5-methyl-1-(5-phenylthiazol-2-yl)-1H-pyrazole-3-carboxamide]	< 3	> 10	> 10	–	–	–
Cn1cc(C(=O)N[C@@H](Cc2ccccc2)C(=O)C(N)=O)c(-c2ccccn2)n1 [Compound 169, (S)—N-(4-amino-3,4-dioxo-1-phenylbutan-2-yl)-1-methyl-3-(pyridin-2-yl)-1H-pyrazole-4-carboxamide]	< 3	< 3	< 3	–	–	–
NC(=O)C(=O)[C@H](Cc1ccccc1)NC(=O)c1cncn1-c1ccn(-c2ccccc2)n1 [Compound 68, (S)—N-(4-amino-3,4-dioxo-1-phenylbutan-2-yl)-1-(1-phenyl-1H-pyrazol-3-yl)-1H-imidazole-5-carboxamide]	< 3	< 3	< 3	–	–	–
Cn1cc(C(=O)NC(Cc2ccccc2)C(=O)C(N)=O)c(C2CCOC2)n1 (stereo not drawn) [Compound 627, N-(4-amino-3,4-dioxo-1-phenylbutan-2-yl)-1-methyl-3-(tetrahydrofuran-3-yl)-1H-pyrazole-4-carboxamide]	–	–	–	< 3	3 to 10	3 to 10
Cn1cc(C(=O)NC(Cc2ccccc2)C(=O)C(N)=O)c(-c2ccc(Cl)s2)n1 (stereo not drawn) [Compound 621, N-(4-amino-3,4-dioxo-1-phenylbutan-2-yl)-3-(5-chlorothiophen-2-yl)-1-methyl-1H-pyrazole-4-carboxamide]	–	–	–	< 3	< 3	< 3
O=C[C@H](Cc1ccccc1)NC(=O)c1cncn1-c1ccccn1 [Compound 31, (S)—N-(1-oxo-3-phenylpropan-2-yl)-1-(pyridin-2-yl)-1H-imidazole-5-carboxamide]	< 3	< 3	< 3	–	–	–
Cc1cc(C(=O)N[C@@H](Cc2ccccc2)C(=O)C(N)=O)nn1-c1nccs1 [Compound 219, (S)—N-(4-amino-3,4-dioxo-1-phenylbutan-2-yl)-5-methyl-1-(thiazol-2-yl)-1H-pyrazole-3-carboxamide]	3 to 10	3 to 10	3 to 10	–	–	–
O=C(NC1CC1)C(=O)[C@H](Cc1ccccc1)NC(=O)c1cncn1-c1ccccn1 [Compound 41, (S)—N-(4-(cyclopropylamino)-3,4-dioxo-1-phenylbutan-2-yl)-1-(pyridin-2-yl)-1H-imidazole-5-carboxamide]	< 3	3 to 10	3 to 10	–	–	–
NC(=O)C(=O)[C@H](Cc1ccccc1)NC(=O)c1occc1-c1ccccc1 [Compound 104, (S)—N-(4-amino-3,4-dioxo-1-phenylbutan-2-yl)-3-phenylfuran-2-carboxamide]	< 3	< 3	< 3	–	–	–
NC(=O)C(=O)[C@H](Cc1ccccc1)NC(=O)c1ccnn1-c1ccccc1 [Compound 10, (S)—N-(4-amino-3,4-dioxo-1-phenylbutan-2-yl)-1-phenyl-1H-pyrazole-5-carboxamide]	< 3	< 3	< 3	–	–	–
COc1ccc(F)c(-c2oncc2C(=O)NC(Cc2ccccc2)C(=O)C(N)=O)c1 (stereo not drawn) [Compound 619, N-(4-amino-3,4-dioxo-1-phenylbutan-2-yl)-5-(2-fluoro-5-methoxyphenyl)isoxazole-4-carboxamide]	–	–	–	< 3	< 3	< 3
Cc1noc(-c2ccccc2)c1C(=O)N[C@@H](Cc1ccccc1)C(=O)C(=O)NCc1ccc(Cl)c(Cl)c1 [Compound 101, (S)—N-(4-((3,4-dichlorobenzyl)amino)-3,4-dioxo-1-phenylbutan-2-yl)-3-methyl-5-phenylisoxazole-4-carboxamide]	> 10	> 10	> 10	–	–	–
Cc1cc(C)cc(C[C@H](NC(=O)c2c(C)noc2-c2ccccc2)C(=O)C(N)=O)c1 [Compound 97, (S)—N-(4-amino-1-(3,5-dimethylphenyl)-3,4-dioxobutan-2-yl)-3-methyl-5-phenylisoxazole-4-carboxamide]	< 3	< 3	< 3	–	–	–
O=C[C@H](Cc1ccccc1)NC(=O)c1scnc1-n1ncc2ccccc21 [Compound 22, (S)-4-(1H-indazol-1-yl)-N-(1-oxo-3-phenylpropan-2-yl)thiazole-5-carboxamide]	< 3	< 3	< 3	–	–	–
Cc1noc(-c2ccccc2)c1C(=O)N[C@@H](Cc1ccccc1)C(=O)C(=O)NC1CC1 [Compound 100, (S)—N-(4-(cyclopropylamino)-3,4-dioxo-1-phenylbutan-2-yl)-3-methyl-5-phenylisoxazole-4-carboxamide]	< 3	< 3	< 3	–	–	–
